Assay results from patent US8183297B2 (Taipei Veterans General Hospital, priority 2008, dated 2012).

Assays:
[1] = tested on: AT/RT-CD133+ cells; test: MTT assay of cell viability/proliferation in AT/RT-CD133+; format: cell-based, human; design: anti-cancer proliferation effect of single agent chemotherapy with addition of RV: dose or concentration left out as unconfirmed; conditions: for resistance of CD133+ to chemotherapeutic agent compared with CD133-: AT/RT cells, p<0.01
Experimental: (§1) This research followed the tenets of the Declaration of Helsinki and all samples were obtained after patients had given informed consent. Dissociated cells from the samples of brain tumors from AT/RT patients were labeled with 1 ml CD133/1 micromagnetic beads per million cells using a CD133 cell isolation kit (MACS, Miltenyi Biotec). CD133^+ cells were cultured in serum-free DMEM/F12 (GIBCO) medium supplemented with N2 supplement (R&D), 10 ng/ml human recombinant bFGF (R&D) and 10 ng/ml EGF. Gamma radiation was delivered by a Theratronic cobalt unit T-1000 (Theratronic Internation, Inc., Ottawa, Canada) at a dose rate of 1.1 Gy/min (SSD=57.5 cm). For evaluation of cell proliferation, cells were seeded on 24-well plates at a density of 2×10^4 cells/well in medium, followed by the methyl thiazol tetrazolium assay (MTT assay; Sigma-Aldrich Co.). The amount of MTT formazan product was determined using a microplate reader and an absorbance of 560 nm (SpectraMax 250, Molecular Devices, Sunnyvale, Calif., USA).

[2] = tested on: cancer-related stem cells; test: MTT cell viability after chemical treatment, cancer-related stem cells vs non-cancer-related stem cells; format: cell-based, human; conditions: MTT survival fraction; p<0.01
Experimental: Cells were seeded on 24-well plates at a density of 2×10^4 cells/well in medium, after post-chemical therapy 24 hours, then followed and analyzed by the MTT assay (Sigma-Aldrich Co.). The amount of MTT formazon product was determined by measuring the absorbance at 560 nm (SpectraMax 250, Molecular Devices, Sunnyvale, Calif., USA). The drugs for chemotherapy are consisted of visplatin, VP-16, doxorubicin, or paclitaxel.

[3] = tested on: AT/RT-CD133+ xenotransplant; test: Xenotransplanted tumorigenicity analysis of AT/RT cells in SCID mice; format: in vivo, SCID mice (BALB/c strain)
Experimental: All procedures involving animals were in accordance with the institutional animal welfare guideline of Taipei Veterans General Hospital. […] Tumor size was measured using calipers and the volume was calculated according to the formula: (length×width^2)/2 and then analyzed using Image Pro-plus software.

[4] = tested on: parental MB cells; test: MTT assay of cell viability in parental MB cells; format: cell-based, human; conditions: 50 μM RV, serum-condition culture
Experimental: (§2) Gamma radiation was delivered by a Theratronic cobalt unit T-1000 (Theratronic Internation, Inc., Ottawa, Canada) at a dose rate of 1.1 Gy/min (SSD=57.5 cm). For evaluation of cell proliferation, cells were seeded on 24-well plates at a density of 2×10^4 cells/well in medium, followed by the methyl thiazol tetrazolium assay (MTT assay; Sigma-Aldrich Co.).

[5] = tested on: AT/RT-CD133+ cells; test: Transwell migration/invasion and soft agar colony formation, AT/RT-CD133+; format: cell-based, human; design: migration/invasion: dose or concentration left out as unconfirmed; conditions: compared with IR treatment alone
Experimental: (§3) The 24-well plate Transwell® system with a polycarbonate filter membrane of 8-μm pore size (Corning, United Kingdom) was used. Cell suspensions were seeded in the upper compartment of the Transwell® chamber at a density of 1×10^5 cells in 100 μl serum-free medium. After 24 hours, the filter membrane was fixed in 4% formalin for 1 hour. The opposite surface of the filter membrane was stained with Hoechst 33342 for 3 min. The soft agar assay was performed as follows. The bottom of each well (35 mm) of a six-well culture dish was coated with 2 ml agar mixture (DMEM, 10% (v/v) FCS, 0.6% (w/v) agar). After the bottom layer solidified, 2 ml top agar-medium mixture (DMEM, 10% (v/v) FCS, 0.3% (w/v) agar) containing 2×10^4 cells was added, and dishes were incubated at 37° C. for 4 weeks. The plates were stained with 0.5 ml 0.005% Crystal Violet for 1 hour, and then the number of colonies was counted using a microscope.

[6] = tested on: MB-CSCs; test: Migration/invasion and tumor colony formation, MB-CSCs; format: cell-based, human; conditions: 100 μM RV alone or combined with 2 Gy IR, compared with IR (2 Gy) alone
Experimental: as §3

[7] = tested on: transplanted iPS cells; test: In vivo osteogenic differentiation and teratoma formation of iPS cells transplanted to nude mice; design: species or system nude mice (BALB/c strain)
[8] = tested on: MB-CSCs (medulloblastoma cancer stem-like cells); test: MTT assay of cell viability in MB-CSCs; format: cell-based, human
Experimental: as §2, with “Dissociated cells from the samples of medulloblastoma patients were cultured in serum-free DMEM/F12 (GIBCO) medium supplemented with N2 supplement (R&D), 10 ng/ml human recombinant bFGF (R&D) and 10 ng/ml EGF. Gamma” for “Gamma”

[9] = tested on: iPS and ES cells; test: Osteogenic differentiation of iPS and ES cells (Alizarin red, real-time RT-PCR); format: cell-based
Experimental: For osteogenic induction, ES or iPS cells were cultured in DMEM-LG (Invitrogen) supplemented with 50 μg·ml^−1 ascorbate-2 phosphate, 10 nmol·L^−1 dexamethasone, and 10 mmol·L^−1 β-glycerophosphate (Sigma, St. Louis, Mo.) for 2 weeks. At the end of osteogenic induction, cells were washed twice with PBS, fixed for 10 min at room temperature with 3.7% paraformaldehyde, and stained with von Kossa stain and Alizarin red to assess osteogenic differentiation.
Real-time RT-PCR was performed as previously described. Briefly, total RNA (1 μg) of each sample was reverse-transcribed using 0.5 μg oligo dT and 200 U Superscript II RT (Invitrogen). The amplification was carried out in a total volume of 20 μl containing 0.5 μmol·L^−1 of each primer, 4 mmol·L^−1 MgCl2, 2 μl LightCycler™-FastStart DNA Master SYBR green I (Roche Molecular Systems, Alameda, Calif.) and 2 μl of 1:10 diluted cDNA. PCR reactions were prepared in duplicate and performed using the following program: 95° C. for 10 min, followed by 40 cycles of denaturation at 95° C. for 10 sec. annealing at 55° C. for 5 sec. and extension at 72° C. for 20 sec. Standard curves (cycle threshold values versus template concentration) were prepared for each target gene and for the endogenous reference gene (GAPDH) for each sample. Quantification of unknown samples was performed using LightCycler Relative Quantification Software version 3.3 (Roche).

[10] = tested on: ATRT-CD133+ cells; test: Percentage of CD133-positive cells in ATRT-CD133+; format: cell-based, human; design: dose or concentration left out as unconfirmed; conditions: RV for 3 days
[11] = tested on: AT/RT CD133- cells; test: MTT assay of proliferation in AT/RT CD133-; format: cell-based, human; design: dose or concentration left out as unconfirmed; conditions: RV for 72 h
Experimental: as §1

[12] = tested on: AT/RT-CD133+/- cells; test: Apoptosis (annexin V, caspase 3, TUNEL) in AT/RT-CD133+/-; format: cell-based, human; design: apoptosis induction: dose or concentration left out as unconfirmed
Experimental: The activities of caspases-8 and -3 were determined by ELISA kit (Medical & Biological Laboratories Co., Ltd, Nagoya, Japan) and quantified by reading at 490 nm (MRX; Dynatech Laboratories, Chantilly, Va., U.S.A.). Each individual sample was analyzed in triplicate. Furthermore, apoptotic cells were identified by the terminal dUTP nick-end labeling (TUNEL) method (In situ Cell Death Detection Kit, POD, Roche Boehringer Mannheim Corp., Ind., U.S.A.). Briefly, cells with cover slips were washed with 1× phosphate-buffered saline (PBS), fixed with 4% of paraformaldehyde for 10 min, permeabilized with 0.1% of Triton X-100 for 5 min, and incubated with the TUNEL reagent provided for 1 h. Chromogenic development was then applied using 3-amino-9-ethyl-carbazole, and slides were counterstained using H&E.

SMILES: N.N.[Cl][Pt][Cl] [cisplatin]
- resistance of CD133+ to chemotherapeutic agent compared with CD133- [1]: significantly resistant
- resistance of cancer-related stem cell to chemotherapeutic agent compared with non-cancer-related stem cell [2]: significantly resistant

SMILES: COc1cc([C@@H]2c3cc4c(cc3[C@@H](O[C@@H]3O[C@@H]5CO[C@@H](C)O[C@H]5[C@H](O)[C@H]3O)[C@H]3COC(=O)[C@H]23)OCO4)cc(OC)c1O [VP16, etoposide]
- resistance of CD133+ to chemotherapeutic agent compared with CD133- [1]: significantly resistant
- resistance of cancer-related stem cell to chemotherapeutic agent compared with non-cancer-related stem cell [2]: significantly resistant

SMILES: Oc1ccc(/C=C/c2cc(O)cc(O)c2)cc1 [resveratrol, 3,4′,5-tri-hydroxy-trans-stilbene]
- total number and growth rates of CD133+ ([1]; 200 mM RV for 48 and 72 h): significantly decreased
- morphology of spheroidlike CD133+ ([1]; 200 mM RV, 48 h): detached from clusters and became a single suspension
- reduction of viability of CD133+ ([1]; RV 100 mM): 20-25%
- anti-cancer proliferation effect of single agent chemotherapy with addition of RV ([1]; RV added to cisplatin, VP-16, ATRT-CD133+/-): significantly improved
- reduction of viability of CD133+ ([1]; RV for 72 h): about 40%
- cell viability ([1]; RV lower than 50 mM, 24, 48, and 72 h, p>0.05): not significantly affected
- tumor formation in transplanted SCID mice ([3]; 1,000 AT/RT-CD133+ treated with 200 mM RV for 72 h, within 6 weeks after inoculation): did not form tumors
- mean survival times (Kaplan-Meier) ([3]; CD133+ and 150 mM RV/IR vs untreated or only IR-treated CD133+, p<0.01): significantly prolonged
- tumor volumes ([3]; CD133+ treated by RV/IR vs CD133+ or CD133+ treated with only IR, p<0.01): significantly decreased
- tumor formation ([3]; RV-treated CD133- group): no tumor formation
- cell viability of parental MB cells [4]: moderately affected
- tumor colony formation ([5]; 150 mM RV alone or combined with IR): significantly inhibited
- migration/invasion ([5]; RV alone or combined with IR): significantly inhibited
- migration/invasion [6]: significantly inhibited
- tumor colony formation [6]: significantly inhibited
- expression of Oct-4, Nanog, Klf-4, and C-Myc in grafts (quantitative RT-PCR) ([7]; osteogenic medium-treated iPS cells, mice fed with resveratrol, six weeks): significantly suppressed
- teratoma-like formation in grafts ([7]; osteogenic medium-treated iPS cells, resveratrol 7.5 μg/ml in drinking water, six weeks): No teratoma-like formation
- expression of OPN in grafts (immunofluorescence) ([7]; resveratrol 7.5 μg/ml in drinking water daily, six weeks after transplantation, vs vehicle): significantly higher
- morphology of spheroid-like MB-CSCs ([8]; 100 μM RV, 48 hours): detached and became a single-suspension
- treatment effect of IR-2 Gy on MB-CSCs with addition of RV ([8]; 100 μM RV, p<0.01): significantly improved
- total cell number and growth rates of MB-CSCs ([8]; 150 μM RV for 48 h, p<0.001): significantly decreased
- reduction of viability of MB-CSCs ([8]; RV 100 μM): 40-45%
- cell viability of MB-CSC ([8]; RV lower than 50 μM, 48 hours, p>0.05): not significantly affected
- calcium accumulation / mineralization (Alizarin red staining) ([9]; 20 μmol·L^−1 resveratrol in osteogenic medium, 14 days): significantly increased
- expression of Runx2, OPN and IBSP ([9]; 20 μmol·L^−1 resveratrol, 7 or 14 days of induction, vs without resveratrol): significantly higher
- percentage of CD133-positive cells in ATRT-CD133+ [10]: decrease
- proliferation and growth of CD133- [11]: totally block
- IR (2 Gy)-mediated apoptotic activity ([12]; RV plus IR 2 Gy, TUNEL): increase
- apoptosis induction ([12]; RV, 72 h, annexin V, caspase 3, TUNEL): induce apoptosis

SMILES: CC(=O)O[C@H]1C(=O)[C@@]2(C)[C@H]([C@H](OC(=O)c3ccccc3)[C@]3(O)C[C@H](OC(=O)[C@H](O)[C@@H](NC(=O)c4ccccc4)c4ccccc4)C(C)=C1C3(C)C)[C@]1(OC(C)=O)CO[C@@H]1C[C@@H]2O [paclitaxel]
- resistance of cancer-related stem cell to chemotherapeutic agent compared with non-cancer-related stem cell [2]: significantly resistant

SMILES: COc1cccc2c1C(=O)c1c(O)c3c(c(O)c1C2=O)C[C@@](O)(C(=O)CO)C[C@@H]3O[C@H]1C[C@H](N)[C@H](O)[C@H](C)O1 [doxorubicin]
- resistance of CD133+ to chemotherapeutic agent compared with CD133- [1]: significantly resistant
- resistance of cancer-related stem cell to chemotherapeutic agent compared with non-cancer-related stem cell [2]: significantly resistant
